Source: US6503869B1, “Enhanced post-emergent herbicidal compositions containing ammonium salts and methods of using the same” (Falcon Lab LLC, priority 2000, dated 2003)

Columns and labels:
fescue = assay: Field study on fescue suppression; assay type: in vivo; conditions: one week after spraying; 0.2% ammonium pelargonate alone; 15 gpa
Description: A field study was made on fescue suppression (fescue thatch, 9-10 in. height, blade length 10-16 in.) using a 0.2% by weight solution of ammonium pelargonate alone, glyphosate ammonium salt alone (ROUNDUP DF®) at application rates of both 0.21 lb. active ingredient/acre (ai/A) and 0.42 lb. ai/A and a combination of 0.2% ammonium pelargonate with the same rates of ROUNDUP DF. The spray rate was 15 gal./acre (gpa) in all cases. One week after spraying, the following results were obtained: […]

weeds and grass = assay: Time to visual phytotoxic effect after application to weeds (general statement); assay type: in vivo; conditions: without ammonium pelargonate; 'or longer'
Description: As an example, weed and grass necrosis may approach 100% within 24 hrs. with glyphosate in combination with ammonium pelargonate, compared to 3-4 days or longer without the ammonium pelargonate.
Unwanted vegetation may be killed by applying to the locus of the vegetation the herbicidal composition of the invention. The herbicidal composition of the invention may be contacted with the unwanted vegetation by spraying or otherwise distributing the composition onto the foliage in accordance with the manufacturers' directions of the post-emergent herbicide [to which has been added the compound of formula (I)]. […] Most importantly, the invention dramatically reduces the kill time. Leaves of vegetation sprayed with herbicidal compositions of the invention usually start to shrivel or turn brown within hours of a single application. Necrosis is evident, usually in 24 hours. Typically unwanted vegetation is dead in less than 24 hours compared to 3 to 4 days when the post-emergent is solely used. Since use of the compound of formula (I) decreases the amount of post-emergent herbicide required, the invention dramatically reduces costs.

Structure (SMILES) | necrosis (fescue) | time until weed and grass necrosis may approach 100% (weeds and grass)
CCCCCCCCC(=O)O.N [Ammonium Pelargonate, ammonium pelargonate] | 0% | –
O=C(O)CNCP(=O)(O)O [glyphosate] | – | 3 to 4 days
